Test results reported in patent publication US9133148B2, “Carbamate compounds and of making and using same” (Abide Therapeutics, Inc., priority 2012, dated 2015).

Assays:
MAGL [1] = target: T1, MAGL (Mus musculus (Mouse), UniProt O35678); test: In vitro competitive activity-based protein profiling (FP-Rh), mouse MAGL; assay type: biochemical; conditions: mouse brain membrane proteome
Protocol: (§1) In Vitro Competitive Activity-Based Protein Profiling.
(§2) Proteomes (mouse brain membrane fraction or cell lysates) ([…], 1.0 mg/mL total protein concentration) were preincubated with varying concentrations of inhibitors at 37° C. After 30 min, FP-Rh (1.0 μL, 50 μM in DMSO) was added and the mixture was incubated for another 30 min at 37° C. Reactions were quenched with SDS loading buffer (50 μL—4×) and run on SDS-PAGE.

FAAH [2] = target: T2, FAAH (Mus musculus (Mouse), UniProt O08914); test: In vitro competitive activity-based protein profiling (FP-Rh), mouse FAAH; assay type: biochemical; conditions: mouse brain membrane proteome
Protocol: as §1, §2

ABHD6 [3] = target: T3, ABHD6 (Mus musculus (Mouse), UniProt Q8R2Y0); test: In vitro competitive activity-based protein profiling (FP-Rh), mouse ABHD6; assay type: biochemical; conditions: mouse brain membrane proteome
Protocol: as §1, §2

Mouse brain MAGL = Mouse brain MAGL (Mus musculus (Mouse), UniProt O35678); test: Mouse brain proteomes from inhibitor treated mice (oral gavage, ABPP of brain MAGL); assay type: in vivo; conditions: for Mouse brain MAGL (% inhibition at 20 mg/kg, p.o.) / Mouse brain MAGL (% inhibition at 5 mg/kg, p.o.): 4 h following administration; for ED50: po
Protocol: Preparation of Mouse Brain Proteomes from Inhibitor Treated Mice.
Inhibitors were administered to wild-type C57Bl/6J by oral gavage in a vehicle of polyethylene glycol.

Human MAGL = Human MAGL (Homo sapiens (Human), UniProt Q99685); test: Competitive ABPP with recombinant human MAGL expressed in HEK293T cells; assay type: biochemical; conditions: hMAGL in HEK293T cell lysates
Protocol: as §2
Recombinant Expression of Human MAGL in HEK293T Cells.
Cell lysates were diluted with mock proteomes for use in competitive ABPP experiments.

MAGL [4] = target: T1, MAGL; test: Competitive ABPP, % inhibition at 1 uM, MAGL; assay type: biochemical
Protocol: as §1, §2

FAAH [5] = target: T2, FAAH; test: Competitive ABPP, % inhibition at 1 uM, FAAH; assay type: biochemical
Summary of the method: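 Mouse brain membrane proteome or cell lysate (1.0 mg/mL protein) preincubated 30 min at 37° C with inhibitor, then labelled 30 min at 37° C with FP-Rh probe. Resolved by SDS-PAGE; activity from in-gel fluorescence intensity of FAAH band.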

ABHD6 [6] = target: T3, ABHD6; test: Competitive ABPP, % inhibition at 1 uM, ABHD6; assay type: biochemical
Protocol: as §1, §2

Human MAGL, sequence (Q99685 whole entry): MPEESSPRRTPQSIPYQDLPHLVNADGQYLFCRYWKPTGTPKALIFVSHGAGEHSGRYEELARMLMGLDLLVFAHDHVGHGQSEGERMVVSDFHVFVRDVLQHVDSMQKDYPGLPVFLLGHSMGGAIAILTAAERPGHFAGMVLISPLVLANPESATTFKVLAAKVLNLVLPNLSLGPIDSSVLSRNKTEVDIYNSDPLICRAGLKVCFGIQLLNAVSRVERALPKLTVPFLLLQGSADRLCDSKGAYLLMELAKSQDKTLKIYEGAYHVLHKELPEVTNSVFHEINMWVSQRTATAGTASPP
T2 sequence (O08914 whole entry): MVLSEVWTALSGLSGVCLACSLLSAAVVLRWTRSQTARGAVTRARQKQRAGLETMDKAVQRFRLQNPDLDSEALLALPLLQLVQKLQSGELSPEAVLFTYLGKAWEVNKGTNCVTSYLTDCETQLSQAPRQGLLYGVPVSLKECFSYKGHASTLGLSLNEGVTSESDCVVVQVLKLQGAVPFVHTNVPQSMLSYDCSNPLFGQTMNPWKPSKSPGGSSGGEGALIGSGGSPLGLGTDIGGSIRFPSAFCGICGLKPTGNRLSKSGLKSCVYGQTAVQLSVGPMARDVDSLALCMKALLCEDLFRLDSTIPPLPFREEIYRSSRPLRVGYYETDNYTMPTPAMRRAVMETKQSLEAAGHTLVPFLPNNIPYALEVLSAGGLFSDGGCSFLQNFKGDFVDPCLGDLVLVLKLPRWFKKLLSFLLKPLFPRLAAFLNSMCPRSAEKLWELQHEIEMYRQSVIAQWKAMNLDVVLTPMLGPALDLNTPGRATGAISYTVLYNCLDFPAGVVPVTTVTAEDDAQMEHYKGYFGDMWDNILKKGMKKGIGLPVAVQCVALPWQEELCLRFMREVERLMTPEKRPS
Mouse brain MAGL, sequence (O35678 whole entry): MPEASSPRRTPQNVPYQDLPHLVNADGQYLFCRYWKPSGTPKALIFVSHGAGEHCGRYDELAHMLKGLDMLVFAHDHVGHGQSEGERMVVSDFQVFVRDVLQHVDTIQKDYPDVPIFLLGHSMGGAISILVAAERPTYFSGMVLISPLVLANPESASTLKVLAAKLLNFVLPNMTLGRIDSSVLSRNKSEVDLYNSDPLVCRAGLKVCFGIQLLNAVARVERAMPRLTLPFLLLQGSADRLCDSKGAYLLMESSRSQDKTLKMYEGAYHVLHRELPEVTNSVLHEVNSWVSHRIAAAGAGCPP
T1 sequence (O35678 whole entry): as above
T3 sequence (Q8R2Y0 whole entry): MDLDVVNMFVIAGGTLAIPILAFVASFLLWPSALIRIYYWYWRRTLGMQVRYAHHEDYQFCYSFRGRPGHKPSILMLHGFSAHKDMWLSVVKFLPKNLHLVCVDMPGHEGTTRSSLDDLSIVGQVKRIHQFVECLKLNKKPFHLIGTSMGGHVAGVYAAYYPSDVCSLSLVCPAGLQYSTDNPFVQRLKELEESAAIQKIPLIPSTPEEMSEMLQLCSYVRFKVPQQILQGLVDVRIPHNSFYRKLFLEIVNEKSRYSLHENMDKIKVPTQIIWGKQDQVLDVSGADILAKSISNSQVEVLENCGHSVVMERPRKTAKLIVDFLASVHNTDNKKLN

Row | IC50 (MAGL [1]; competitive ABPP) [nM] | IC50 (FAAH [2]; competitive ABPP) [nM] | IC50 (ABHD6 [3]; competitive ABPP) [nM] | Mouse brain MAGL (% inhibition at 20 mg/kg, p.o.) (Mouse brain MAGL) [%] | IC50 (Human MAGL) [nM] | IC50 (MAGL [1]; competitive ABPP (Table 7)) [nM] | IC50 (FAAH [2]; competitive ABPP (Table 7)) [nM] | IC50 (ABHD6 [3]; competitive ABPP (Table 7)) [nM] | Mouse brain MAGL (% inhibition at 5 mg/kg, p.o.) (Mouse brain MAGL) [%] | SMILES | also measured
1 | < 100 | > 10000 | 100 to 1000 | 13 | – | – | – | – | – | COC(c1ccc2c(c1)OCO2)(c1ccc2c(c1)OCO2)C1CCN(C(=O)OC(C(F)(F)F)C(F)(F)F)CC1 [Example 1b, 1,1,1,3,3,3-hexafluoropropan-2-yl 4-(bis(benzo[d][1,3]dioxol-5-yl)(methoxy)methyl)piperidine-1-carboxylate] | –
2 | < 100 | > 10000 | > 1000 | >95 | < 100 | – | – | – | – | O=C(OC(C(F)(F)F)C(F)(F)F)N1CCC(C(c2ccc3c(c2)OCO3)c2ccc3c(c2)OCO3)CC1 [Example 1c, 1,1,1,3,3,3-hexafluoropropan-2-yl 4-(bis(benzo[d][1,3]dioxol-5-yl)methyl)piperidine-1-carboxylate] | –
3 | < 100 | > 10000 | > 1000 | >95 | < 100 | – | – | – | – | O=C(OC(C(F)(F)F)C(F)(F)F)N1CCN(C(c2ccc(F)cc2)c2ccc(F)cc2)CC1 [Example 2a, 1,1,1,3,3,3-hexafluoropropan-2-yl 4-(bis(4-fluorophenyl)methyl)-piperazine-1-carboxylate] | –
4 | 100 to 1000 | > 10000 | > 1000 | 94 | < 100 | – | – | – | – | O=C(OC(C(F)(F)F)C(F)(F)F)N1CCN(C(c2ccc(Br)cc2)c2ccc(Br)cc2)CC1 [Example 2c, 1,1,1,3,3,3-hexafluoropropan-2-yl 4-(bis(4-bromophenyl)methyl)-piperazine-1-carboxylate] | –
5 | < 100 | > 10000 | 100 to 1000 | >95 | < 100 | – | – | – | – | O=C(OC(C(F)(F)F)C(F)(F)F)N1CCN(C(c2ccc3c(c2)OCO3)c2ccc3c(c2)OCO3)CC1 [Example 2d, 1,1,1,3,3,3-hexafluoropropan-2-yl 4-(bis(benzo[d][1,3]dioxol-5-yl)methyl)piperazine-1-carboxylate] | –
6 | < 100 | > 10000 | < 100 | >95 | < 100 | – | – | – | – | O=C(OC(C(F)(F)F)C(F)(F)F)N1CCN(Cc2cccc(Oc3ccccc3)c2)CC1 [Example 3a, 1,1,1,3,3,3-hexafluoropropan-2-yl 4-(3-phenoxybenzyl)piperazine-1-carboxylate] | –
7 | 100 to 1000 | > 10000 | < 100 | 93 | < 100 | – | – | – | – | CN(Cc1cccc(-c2cccnc2)c1)C(=O)OC(C(F)(F)F)C(F)(F)F [Example 3g, 1,1,1,3,3,3-hexafluoropropan-2-yl methyl(3-(pyridin-3-yl)benzyl)-carbamate] | –
8 | < 100 | > 10000 | > 1000 | >95 | < 100 | – | – | – | – | CC(C)(C)c1ccc(S(=O)(=O)N2CCN(C(=O)OC(C(F)(F)F)C(F)(F)F)CC2)cc1 [Example 4c, 1,1,1,3,3,3-hexafluoropropan-2-yl 4-((4-(tert-butyl)phenyl)sulfonyl)-piperazine-1-carboxylate] | –
9 | 100 to 1000 | > 10000 | < 100 | >95 | – | – | – | – | – | CNC(=O)C(OC(=O)N1CCN(C(c2ccc(Cl)cc2)c2ccc(Cl)cc2)CC1)C(F)(F)F (stereo not drawn) [Example 6j, 1,1,1-trifluoro-3-(methylamino)-3-oxopropan-2-yl 4-(bis(4-chlorophenyl)methyl)piperazine-1-carboxylate] | –
10 | – | – | – | – | – | 100 to 1000 | > 10000 | > 1000 | – | CC(=O)NC1CCN(c2cc(Cl)ccc2CN2CCN(C(=O)OC(C(F)(F)F)C(F)(F)F)CC2)C1 (stereo not drawn) [Example 9af, 1,1,1,3,3,3-hexafluoropropan-2-yl 4-(2-(3-acetamidopyrrolidin-1-yl)-4-chlorobenzyl)piperazine-1-carboxylate] | ED50 (Mouse brain MAGL): < 4 mg/kg
11 | – | – | – | – | – | < 100 | > 10000 | > 1000 | 75 | O=C(OC(C(F)(F)F)C(F)(F)F)N1CCN(Cc2cccc(Cl)c2N2CCCC2)CC1 [Example 9ar, 1,1,1,3,3,3-hexafluoropropan-2-yl 4-(3-chloro-2-(pyrrolidin-1-yl)benzyl)piperazine-1-carboxylate] | –
12 | – | – | – | – | – | < 100 | > 10000 | > 1000 | 75 | O=C(OC(C(F)(F)F)C(F)(F)F)N1CCN(Cc2ccc(Cl)cc2N2CCC3(CCOCC3)C2)CC1 [Example 9av, 1,1,1,3,3,3-hexafluoropropan-2-yl 4-(4-chloro-2-(8-oxa-2-azaspiro[4.5]decan-2-yl)benzyl)piperazine-1-carboxylate] | –
13 | – | – | – | – | – | < 100 | > 10000 | > 1000 | 75 | O=C(OC(C(F)(F)F)C(F)(F)F)N1CCN(Cc2ccc(Cl)cc2N2CCC3(CCNC3=O)CC2)CC1 [Example 9ax, 1,1,1,3,3,3-hexafluoropropan-2-yl 4-(4-chloro-2-(1-oxo-2,8-diazaspiro[4.5]decan-8-yl)benzyl)piperazine-1-carboxylate] | –
14 | – | – | – | – | – | < 100 | > 10000 | > 1000 | 50 | O=C(OC(C(F)(F)F)C(F)(F)F)N1CCN(Cc2ccc(Cl)cc2N2CCC2)CC1 [Example 9ay, 1,1,1,3,3,3-hexafluoropropan-2-yl 4-(2-(azetidin-1-yl)-4-chlorobenzyl)piperazine-1-carboxylate] | –
15 | – | – | – | – | – | < 100 | > 10000 | 100 to 1000 | 25 | O=C(OC(C(F)(F)F)C(F)(F)F)N1CCN(Cc2ccc(Cl)cc2N2Cc3cccnc3C2)CC1 [Example 9bh, 1,1,1,3,3,3-hexafluoropropan-2-yl 4-(4-chloro-2-(5H-pyrrolo[3,4-b]pyridin-6(7H)-yl)benzyl)piperazine-1-carboxylate] | –
16 | – | – | – | – | – | < 100 | > 10000 | > 1000 | 50 | O=C(OC(C(F)(F)F)C(F)(F)F)N1CCN(Cc2ccc(Cl)cc2N2CCN3CCC[C@@H]3C2)CC1 [Example 9bi, (R)-1,1,1,3,3,3-hexafluoropropan-2-yl 4-(4-chloro-2-(hexahydropyrrolo[1,2-a]pyrazin-2(1H)-yl)benzyl)piperazine-1-carboxylate] | –
17 | – | – | – | – | – | < 100 | > 10000 | 100 to 1000 | 75 | CS(=O)(=O)N1CCN(c2cc(Cl)ccc2CN2CCN(C(=O)OC(C(F)(F)F)C(F)(F)F)CC2)CC1 [Example 9bj, 1,1,1,3,3,3-hexafluoropropan-2-yl 4-(4-chloro-2-(4-(methylsulfonyl)piperazin-1-yl)benzyl)piperazine-1-carboxylate] | –
18 | – | – | – | – | – | < 100 | > 10000 | > 1000 | – | O=C(OC(C(F)(F)F)C(F)(F)F)N1CCN(Cc2cccc(F)c2N2CCOCC2)CC1 [Example 9d, 1,1,1,3,3,3-hexafluoropropan-2-yl 4-[[3-fluoro-2-(morpholin-4-yl)phenyl]methyl]piperazine-1-carboxylate] | ED50 (Mouse brain MAGL): < 4 mg/kg
19 | – | – | – | – | – | < 100 | > 10000 | > 1000 | 75 | O=C(OC(C(F)(F)F)C(F)(F)F)N1CCN(Cc2cc(Cl)ccc2N2CCCC2)CC1 [Example 9n, 1,1,1,3,3,3-hexafluoropropan-2-yl 4-[[5-chloro-2-(pyrrolidin-1-yl)phenyl]methyl]piperazine-1-carboxylate] | inhibition at 1 µM (MAGL [4]): 25 to 75%; inhibition at 1 µM (FAAH [5]): < 25%; inhibition at 1 µM (ABHD6 [6]): 25 to 75%
20 | – | – | – | – | – | < 100 | > 10000 | 100 to 1000 | 75 | CC(C)n1cc(CN2CCN(C(=O)OC(C(F)(F)F)C(F)(F)F)CC2)c(-c2ccccc2Cl)n1 [Example 10i, 1,1,1,3,3,3-hexafluoropropan-2-yl 4-[[3-(2-chlorophenyl)-1-(propan-2-yl)-1H-pyrazol-4-yl]methyl]piperazine-1-carboxylate] | –
21 | – | – | – | – | – | < 100 | > 10000 | > 1000 | 75 | O=C(OC(C(F)(F)F)C(F)(F)F)N1CCN(Cc2ccc(-c3ccccc3)cc2C(=O)N2CCCC2)CC1 [Example 11y, 1,1,1,3,3,3-hexafluoropropan-2-yl 4-([4-phenyl-2-[(pyrrolidin-1-yl)carbonyl]phenyl]methyl)piperazine-1-carboxylate] | –

Row | SMILES | IC50 (MAGL [1]; competitive ABPP) [nM] | IC50 (FAAH [2]; competitive ABPP) [nM] | IC50 (ABHD6 [3]; competitive ABPP) [nM] | Mouse brain MAGL (% inhibition at 20 mg/kg, p.o.) (Mouse brain MAGL) [%] | IC50 (Human MAGL) [nM] | IC50 (MAGL [1]; competitive ABPP (Table 7)) [nM] | IC50 (FAAH [2]; competitive ABPP (Table 7)) [nM] | IC50 (ABHD6 [3]; competitive ABPP (Table 7)) [nM] | Mouse brain MAGL (% inhibition at 5 mg/kg, p.o.) (Mouse brain MAGL) [%] | also measured
22 | O=C(OC(C(F)(F)F)C(F)(F)F)N1CCC(C(O)(c2ccc3c(c2)OCO3)c2ccc3c(c2)OCO3)CC1 [Example 1a, 1,1,1,3,3,3-hexafluoropropan-2-yl 4-(bis(benzo[d][1,3]dioxol-5-yl)(hydroxy)methyl)piperidine-1-carboxylate] | < 100 | > 10000 | > 1000 | >95 | < 100 | – | – | – | – | –
